Experimental data reported in PMC3223204, “Implantation Serine Proteinase 1 Exhibits Mixed Substrate Specificity that Silences Signaling via Proteinase-Activated Receptors” (PLoS ONE, 2011).
“Also recorded” adds a separate entry of the source. Structures can show the parent of a compound that is named as a salt. Where two headings read alike, the source gives them in different places. Non-standard residues stand in square brackets, D forms with d. Residues, ends and D or L forms follow the SMILES beside them. *: point of attachment. pNA = O=[N+]([O-])c1ccc(N*)cc1; Tos = Cc1ccc(S(=O)(=O)*)cc1; Bz = O=C(c1ccccc1)*

T1: recombinant ISP1 (Mus musculus, UniProt Q924N9)
T1 construct: Myc (C); His6 (C); made in house; host or cells: Pichia pastoris SMD1168
T1 sequence (Q924N9 31-274 limits assumed): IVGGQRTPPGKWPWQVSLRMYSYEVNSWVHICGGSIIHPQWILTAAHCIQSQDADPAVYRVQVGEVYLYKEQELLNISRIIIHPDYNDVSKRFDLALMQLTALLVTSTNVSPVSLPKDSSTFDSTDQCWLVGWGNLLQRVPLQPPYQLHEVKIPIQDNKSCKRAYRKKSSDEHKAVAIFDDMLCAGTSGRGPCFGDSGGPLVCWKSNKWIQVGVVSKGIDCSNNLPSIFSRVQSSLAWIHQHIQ


What was measured:
[1] = target: T1, recombinant ISP1; assay: Chromogenic substrate kinetics of recombinant ISP1; type: biochemical; conditions: for Hydrolysis of chromogenic substrate by rISP1: result in words; for Michaelis Menton Constant (Km) / Turnover No. (kcat) / Km: substrate of recombinant ISP1, 25 mM Tris.Cl pH 8.0, room temperature; for Turnover No. (kcat): [E] 6.5 uM; for Km: read-out: Michaelis Menton Constant (Km)
Description: (§1) p-Nitroanilide substrates, Valine-Proline-Arginine-Amino methyl coumarin (VPR-AMC), Benzamidine Hydrochloride, TLCK (N -p-tosyl-L-lysine chloromethyl ketone), APMSF (4-Amidino-Phenyl)-Methane-Sulfonyl Fluoride), Trypsin Soybean Inhibitor (TSI) and Gabexate mesylate were obtained from Sigma Aldrich and Co. Oakville, ON Canada. Chromogenic assays were performed using the p-Nitroanilide/methyl-naphthylamide conjugated peptidic substrates. The reaction conditions used were: 25 mM Tris.Cl (pH 8.0) buffer with 10 mM EDTA reaction buffer, in a total reaction volume of 0.5 mL including varying concentrations of the substrates and enzyme sample. The reactions were done at room temperature in a glass cuvette (1 cm path length), and scanned at wavelength of 405 nm (in case of p-nitroanilide conjugated substrates) and 540 nm (in case of methyl-naphthylamide substrates) using a spectrophotometer. 1 Unit of enzyme is defined as the amount of enzyme capable of the breakdown of 1 micromole of substrate/min.
(§2) The catalytic activity of recombinant ISP1 with various small chromogenic peptide substrates was characterized by measuring enzyme cleavage at differing substrate concentrations and plotting enzyme activity [V] vs. substrate concentration [S] and calculating Michaelis Menten constant (Km). The Km was calculated using the Michaelis Menten equation (Km = [S] at ½ Vmax). Sigma plot was used for plotting the values obtained and determining Michaelis Menten Constant (Km). Inhibition of proteolytic activity of recombinant ISP1 was determined by measuring enzyme activity in the presence of varying concentrations of serine proteinase inhibitors. 2 mM BAPNA and 150 uM VPR-AMC were employed for enzyme assays in these inhibition studies. Sigma plot was used for plotting the values obtained in order to determine dissociation constant (Ki). Enzyme concentration [E] used for these experiments was 6.5 uM. This value was employed for calculating turnover number (kcat) and enzyme efficiency represented by kcat/Km ratio.

[2] = target: T1, recombinant ISP1; assay: Inhibition of recombinant ISP1 by general serine proteinase inhibitors; type: biochemical; conditions: for Effect on enzyme activity of rISP1: 2 mM BAPNA as well as 150 µM VPR-AMC as substrate, result in words; for Ki: read-out: Ki (Apparent Ki)
Description: as §1, §2

| Molecule | Hydrolysis of chromogenic substrate by rISP1 [1] | Turnover No. (kcat) [1] | Effect on enzyme activity of rISP1 [2] | other results |
| --- | --- | --- | --- | --- |
| C[C@H](NC(=O)CCC(=O)O)C(=O)N[C@@H](C)C(=O)N[C@@H](C)C(=O)Nc1ccc([N+](=O)[O-])cc1 [N-Succinyl-alanine-alanine-alanine p-nitroanilide] | no reaction | Nil |  | Michaelis Menton Constant (Km) [1]: Nil |
| CC(=O)O.Cc1ccc(S(=O)(=O)NCC(=O)N2CCC[C@H]2C(=O)N[C@@H](CCCCN)C(=O)Nc2ccc([N+](=O)[O-])cc2)cc1 [N(p-tosyl)-glycine-proline-lysine p-nitroanilide acetate] (Tos-Gly-Pro-Lys-pNA) | no enzyme activity | Nil |  | Michaelis Menton Constant (Km) [1]: Nil |
| α-1-Antitrypsin: general serine proteinase inhibitor |  |  | inhibited the enzyme activity | Effect on enzyme activity of rISP1 ([2]; listed as α-1 antitrypsin): strong inhibitory activity; Ki ([2]; substrate BAPNA (2 mM)): 2 µM |
| Cc1ccc(S(=O)(=O)N[C@@H](CCCCN)C(=O)CCl)cc1 [TLCK, N -p-tosyl-L-lysine chloromethyl ketone] |  |  | inhibited the enzyme activity; also recorded: strong inhibitory activity | Ki ([2]; substrate VPR-AMC (0.15 mM)): 30 µM |
| CCOC(=O)c1ccc(OC(=O)CCCCCN=C(N)N)cc1.CS(=O)(=O)O [Gabexate mesylate] |  |  | inhibited the enzyme activity | Effect on enzyme activity of rISP1 ([2]; listed as gabexate mesylate): strong inhibitory activity; Ki ([2]; substrate BAPNA (2 mM)): 1700 µM |
| CC[C@H](C)[C@H](NC(=O)c1ccccc1)C(=O)N[C@@H](Cc1ccccc1)C(=O)N[C@@H](CCCCN)C(=O)Nc1ccc([N+](=O)[O-])cc1.Cl [N-Benzoyl-isoleucine-phenylalanine-lysine p-nitroanilide hydrochloride] (Bz-Ile-Phe-Lys-pNA) | hydrolyzed | 3.9 s⁻¹ |  | Km [1]: 9600 µM |
| CC(C)[C@H](NC(=O)[C@H](Cc1ccccc1)NC(=O)c1ccccc1)C(=O)N[C@@H](CCCNC(=N)N)C(=O)Nc1ccc([N+](=O)[O-])cc1.Cl [N-Benzoyl-phenylalanine-valine-arginine p-nitroanilide hydrochloride] (Bz-Phe-Val-Arg-pNA) | hydrolyzed | 0.14 s⁻¹ |  | Km [1]: 360 µM |
| CC(=O)N[C@@H](CC(C)C)C(=O)N[C@@H](CC(C)C)C(=O)N[C@H](C=O)CCCNC(=N)N [Leupeptin] |  |  | no noticeable effect | Ki (Apparent Ki) ([2]; substrate BAPNA (2 mM)): No inhibition |
| Cl.N=C(N)NCCC[C@H](NC(=O)c1ccccc1)C(=O)Nc1ccc([N+](=O)[O-])cc1 [N-Benzoyl Argininep-nitroanilide (BAPNA), N-Benzoyl-L- arginine p-nitroanilide hydrochloride] | hydrolyzed | 2.2 s⁻¹ |  | Km [1]: 610 µM |
| CC(C)[C@H](N)C(=O)N[C@@H](Cc1ccccc1)C(=O)N[C@@H](CCCCN)C(=O)Nc1ccc([N+](=O)[O-])cc1 [Valine-Phenylalanine-Lysine p-nitroanilide] (H-Val-Phe-Lys-pNA) | no enzyme activity | Nil |  | Michaelis Menton Constant (Km) [1]: Nil |
| Aprotinin |  |  | no noticeable effect | Ki (Apparent Ki) ([2]; substrate BAPNA (2 mM)): No inhibition |
| N=C(N)c1ccccc1 [Benzamidine Hydrochloride] |  |  | no noticeable effect | Ki (Apparent Ki) ([2]; substrate BAPNA (2 mM)): No inhibition |
| CC(C)C[C@H](NC(=O)[C@@H](NC(=O)N[C@@H](Cc1ccccc1)C(=O)O)[C@@H]1CCN=C(N)N1)C(=O)N[C@H](C=O)Cc1ccccc1 [Chymostatin] |  |  | inhibited the enzyme activity | Effect on enzyme activity of rISP1 ([2]; listed as chymostatin): strong inhibitory activity; Ki ([2]; substrate BAPNA (2 mM)): 220 µM |
| C[C@H](N)C(=O)Nc1ccc([N+](=O)[O-])cc1 [Alanine p-nitroanilide] | no reaction | Nil |  | Michaelis Menton Constant (Km) [1]: Nil |
| COc1cc(NC(=O)C(CCCNC(=N)N)NC(=O)C(CCCNC(=N)N)NC(=O)C(CCCNC(=N)N)NC(=O)OCc2ccccc2)cc2ccccc12 (stereo not shown) [N-CBZ-arginine-arginine-arginine-4-methoxy naphthylamide] | hydrolyzed | 0.7 s⁻¹ |  | Km ([1]; listed as RRRmN): ~100 µM; Km [1]: 99 µM |
| CC(C)C[C@H](NC(=O)[C@H](N)C(C)C)C(=O)N[C@@H](CCCCN)C(=O)Nc1ccc([N+](=O)[O-])cc1.Cl [Valine-Leucine-Lysinep-nitroanilide, H-D-valine-leucine-lysine p-nitroanilide hydrochloride] (H-[dV]-Leu-Lys-pNA) | no enzyme activity | Nil |  | Michaelis Menton Constant (Km) [1]: Nil |
| O=S(=O)(F)Cc1ccccc1 [PMSF] |  |  | inhibited the enzyme activity; also recorded: strong inhibitory activity | Ki ([2]; substrate VPR-AMC (0.15 mM)): 340 µM |
| Recombinant human SLPI: recombinant human Secretory Leukocyte Protease Inhibitor (protein, UniProt P03973 26-132, looked up) Antileukoproteinase: SGKSFKAGVCPPKKSAQCLRYKKPECQSDWQCPGKKRCCPDTCGIKCLDPVDTPNPTRRKPGKCPVTYGQCLMLNPPNFCEMDGQCKRDLKCCMGMCGKSCVSPVKA |  |  | no noticeable effect | Ki (Apparent Ki) ([2]; substrate BAPNA (2 mM)): No inhibition |
| Soybean Trypsin Inhibitor: general serine proteinase inhibitor (protein, UniProt P01070 25-205, looked up) Trypsin inhibitor A: DFVLDNEGNPLENGGTYYILSDITAFGGIRAAPTGNERCPLTVVQSRNELDKGIGTIISSPYRIRFIAEGHPLSLKFDSFAVIMLCVGIPTEWSVVEDLPEGPAVKIGENKDAMDGWFRLERVSDDEFNNYKLVFCPQQAEDDKCGDIGISIDHDDGTRRLVVSKNKPLVVQFQKLDKESL |  |  | inhibited the enzyme activity | Effect on enzyme activity of rISP1 ([2]; listed as trypsin soybean inhibitor): strong inhibitory activity; Ki ([2]; substrate BAPNA (2 mM)): 2.4 µM |
